# Earlier results, collected in patent US20220233546A1, “Neurologist Formulated Nocturnal Nootropic Founded on a Novel Theory of Brain Aging” (priority 2022, published 2022).
# Like-named read-outs stand apart in the source and are kept apart here.
# Tests used:
# [1] = daily dose of 200 to 2400 mg/day
# [2] = in vivo
# [3] = tested on: young persons with multiple sclerosis
# [4] = tested on: persons with Alzheimer's disease, Parkinson's disease, and multiple sclerosis; conditions: combination therapy including Apigenin 100 mg
# plasma homocysteine = conditions: supplementation, human
# [5] = human; saffron extract 56 mg and 84 mg
# [6] = 675 mg, at 4 weeks
# [7] = tested on: children with autism spectrum disorder; conditions: combination therapy including Luteolin 100 mg
# [8] = tested on: amyotrophic lateral sclerosis (ALS)
# multiple sclerosis = conditions: high doses; adjunctive therapy in multiple sclerosis
# [9] = tested on: persons with mild cognitive impairment
# [10] = tested on: neurohypophyseal hormone release
# [11] = tested on: persons with mild cognitive impairment; remark: listed apart in the source
smiles,measurement,setting,value
"O=C(O)CCCCC1CCSS1 (racemic) [ALA, Alpha Lipoic Acid]",safety and tolerability,[1],safe and well-tolerated
C/C1=C2/[N-][C@H]([C@H](CC(N)=O)[C@@]2(C)CCC(=O)NC[C@H](C)OP(=O)([O-])O[C@H]2[C@@H](O)[C@@H](n3cnc4cc(C)c(C)cc43)O[C@@H]2CO)[C@]2(C)N=C(/C(C)=C3N=C(/C=C4N=C1[C@@H](CCC(N)=O)C\4(C)C)[C@@H](CCC(N)=O)[C@]\3(C)CC(N)=O)[C@@H](CCC(N)=O)[C@]2(C)CC(N)=O.[Co+2] (stereo in doubt) [cobalamin],bioavailability,[2],50%
O=C(O)CCCC[C@@H]1CCSS1 [(R)-Alpha Lipoic Acid],safety and tolerability profile,"[3]; human, in vivo",good safety and tolerability profile
same,reduction of yearly rate of brain atrophy,[3]; young persons with multiple sclerosis,~70%
O=c1cc(-c2ccc(O)cc2)oc2cc(O)cc(O)c12 [Apigenin],clinical course and biomarkers including abnormal protein deposition,[4],trend towards clinical stabilization and reduction of specific biomarkers
C[N+](C)(C)CC(=O)O [Betaine],plasma homocysteine concentrations,plasma homocysteine,significant reduction
CC(/C=C/C=C(\C)C(=O)O)=C\C=C\C=C(C)\C=C\C=C(/C)C(=O)O [Crocetin],bioavailability,[5],40%
same,serum concentration of saffron isomers,[5],detected at a significant concentration
COc1cc(/C=C/C(=O)CC(=O)/C=C/c2ccc(O)c(OC)c2)ccc1O [Curcumin],"working memory and attention (Buschke Selective Reminding Test, Brief Visual Memory Test-Revised, Trail Making A)",adults without dementia; adults without dementia,improves working memory and attention
same,post-interventional changes in pathological proteins (amyloid and tau) by positron emission tomography,adults without dementia; brain regions including the amygdala,significant decrease in pathological proteins
O=C(O)[C@H](O)[C@@H](O)CO [L-Threonate],increase in CSF Threonate concentration,[6],54%
same,increase in magnesium concentration,[6]; CSF,15%
same,Threonate concentration in cerebrospinal fluid (CSF),CSF,~100 µM
same,Threonate concentration in plasma,plasma,approximately 20 μM
O=c1cc(-c2ccc(O)c(O)c2)oc2cc(O)cc(O)c12 [Luteolin],adaptive functioning and Aberrant Behavior Checklist subscale scores,[7],improvement in adaptive functioning and reduction in Aberrant Behavior Checklist subscale scores
same,adverse effects,[7],no adverse effects
COc1cc(/C=C/c2ccc(O)cc2)cc(OC)c1 [Trans-Pterostilbene],function and progression of neurodegenerative processes,[8],significantly improves function in and slows progression of neurodegenerative processes
"C=C1CC[C@H](O)C/C1=C/C=C1\CCC[C@]2(C)[C@@H]([C@H](C)CCCC(C)C)CC[C@@H]12 [cholecalciferol, Cholecalciferol]","brain lesions, disability and mobility",multiple sclerosis,"fewer new brain lesions, reduced disability, and improved mobility"
Nc1nc2ncc(CNc3ccc(C(=O)N[C@@H](CCC(=O)O)C(=O)O)cc3)nc2c(=O)[nH]1 [folic acid],"dementia-related biomarkers (beta-amyloid, homocysteine, S-adenosylmethionine, amyloid precursor protein mRNA expression)",[9],deceases dementia-related biomarkers
same,"cognitive function (full scale IQ, verbal IQ, verbal comprehension index, working memory index)",[9]; pre- and post-intervention,improves cognitive function
"COc1ccc2[nH]cc(CCNC(C)=O)c2c1 [melatonin, Melatonin]",neurohypophyseal hormone release,[10]; higher dose melatonin 5 mg,inhibited
same,neurohypophyseal hormone release,[10]; low dose melatonin 0.5 mg,augmented
same,cognition after a battery of neurocognitive testing,[11],significant improvement in cognition
"CC1=C(C=O)C(C)(C)CC=C1 [safranal, reference compound]",serum concentration of saffron isomers,[5],undetectable
